According to PMC9358669, “Native metabolomics identifies the rivulariapeptolide family of protease inhibitors” (Nature Communications, 2022):
pIC50: −log10 of the molar value. Read-outs that look alike come from different tables or passages of the source. Starred links: 1 amine or outer side, 2 acyl side, 3 side chain; linkers in the order of their positions; H or OH if unused. Positions of bridges follow the written chain, without caps; N, C: chain ends. Non-standard residues stand in square brackets, D forms with d. Residues, ends and D or L forms follow the SMILES beside them. *: point of attachment. Ahp(3S,6R)alloIle = CC[C@@H](C)[C@@H](C(=O)[*:2])N1C(=O)[C@@H](N[*:1])CC[C@H]1O; Propanoyl(2R-OMe,3-OSO3H) = CO[C@H](COS(=O)(=O)O)C(=O)*; NMeTyr(3-Br,OMe) = CN[C@@H](Cc1ccc(OC)c(Br)c1)C(=O)O

Experiments:
Chymotrypsin [1] = test system: Chymotrypsin; parameters: method as in earlier work; conditions: Supplementary Table 5, Top 50 chymotrypsin inhibitors among Ahp-cyclodepsipeptides; cited from earlier work
Proteinase K = biological target: T1, Proteinase K (Parengyodontium album, UniProt P06873); test: Proteinase K inhibition, fluorogenic substrate assay (Suc-Ala-Ala-Pro-Phe-AMC); type: biochemical, Tritirachium album; conditions: 40 min pre-incubation; for pIC50: mean, n = 3; for Mean (RFU/s): Proteinase K
T1 construct: purchased Roche
T1 sequence (P06873 106-384): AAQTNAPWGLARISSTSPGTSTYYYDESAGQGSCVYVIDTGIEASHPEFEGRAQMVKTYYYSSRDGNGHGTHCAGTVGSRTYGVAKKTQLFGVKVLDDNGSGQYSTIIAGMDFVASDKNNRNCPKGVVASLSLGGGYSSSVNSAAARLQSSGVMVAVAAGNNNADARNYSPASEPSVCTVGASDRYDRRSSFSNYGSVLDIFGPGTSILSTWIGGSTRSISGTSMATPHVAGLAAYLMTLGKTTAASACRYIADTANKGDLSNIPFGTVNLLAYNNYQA

Chymotrypsin [2] = biological target: T2, Chymotrypsin (Bos taurus, UniProt P00766); test: Chymotrypsin inhibition, fluorogenic substrate assay (Suc-Ala-Ala-Pro-Phe-AMC); type: biochemical; conditions: for Mean (RFU/s): Chymotrypsin
T2 construct: purchased Sigma-Aldrich

Elastase = biological target: T3, Elastase (Sus scrofa, UniProt P00772); test: Elastase inhibition, fluorogenic substrate assay (MeOSuc-Ala-Ala-Pro-Val-AMC); type: biochemical, Sus domesticus; conditions: for pIC50 / Mean (RFU/s): 40 min pre-incubation; for pIC50: mean, n = 3; for Mean (RFU/s): Elastase
T3 construct: purchased Sigma-Aldrich
T3 sequence (P00772 27-266): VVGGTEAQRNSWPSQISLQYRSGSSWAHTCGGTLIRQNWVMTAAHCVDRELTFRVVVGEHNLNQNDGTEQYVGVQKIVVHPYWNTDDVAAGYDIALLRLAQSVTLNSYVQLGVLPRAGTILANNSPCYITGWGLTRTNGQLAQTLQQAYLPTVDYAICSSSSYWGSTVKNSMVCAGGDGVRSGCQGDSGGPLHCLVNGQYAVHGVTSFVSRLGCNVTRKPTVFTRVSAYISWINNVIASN

[3] = inhibitor concentration 0.0508053 nM
[4] = inhibitor concentration 0.152416 nM
[5] = inhibitor concentration 0.457247 nM
[6] = inhibitor concentration 1.37174 nM
[7] = inhibitor concentration 4.11523 nM
[8] = inhibitor concentration 12.3457 nM
[9] = inhibitor concentration 37.037 nM
[10] = inhibitor concentration 111.111 nM
[11] = inhibitor concentration 333.333 nM
[12] = inhibitor concentration 1000 nM
[13] = inhibitor concentration 3000 nM
[14] = 40 min pre-incubation, mean, n = 3, read-out: IC50 Chymotrypsin
[15] = inhibitor concentration 0.0508053 nM, 40 min pre-incubation
[16] = inhibitor concentration 0.152416 nM, 40 min pre-incubation
[17] = inhibitor concentration 0.457247 nM, 40 min pre-incubation
[18] = inhibitor concentration 1.37174 nM, 40 min pre-incubation
[19] = inhibitor concentration 4.11523 nM, 40 min pre-incubation
[20] = inhibitor concentration 12.3457 nM, 40 min pre-incubation
[21] = inhibitor concentration 37.037 nM, 40 min pre-incubation
[22] = inhibitor concentration 111.111 nM, 40 min pre-incubation
[23] = inhibitor concentration 333.333 nM, 40 min pre-incubation
[24] = inhibitor concentration 1000 nM, 40 min pre-incubation
[25] = inhibitor concentration 3000 nM, 40 min pre-incubation
[26] = Supplementary Table 5, compounds of this study, read-out: Chymotrypsin IC50
[27] = replacement of Abu (compound 2) for Leu (1)

In the case of `C/C=C1\NC(=O)[C@@H](NC(=O)[C@@H](NC(=O)[C@H](C)NC(=O)CCC)C(C)C)[C@@H](C)OC(=O)[C@H](C(C)C)NC(=O)[C@H](Cc2ccc(O)cc2)N(C)C(=O)[C@H](Cc2ccccc2)N2C(=O)[C@H](CC[C@H]2O)NC1=O` [Bouillomide A], the pIC50 (Chymotrypsin [1]) is given as 6.77.
In the case of `CCC(=O)N[C@@H](CCC(N)=O)C(=O)N[C@@H]1C(=O)N[C@@H](CC(C)C)C(=O)N[C@H]2CC[C@@H](O)N(C2=O)[C@@H](Cc2ccccc2)C(=O)N(C)[C@@H](Cc2ccc(O)cc2)C(=O)N[C@@H](C(C)C)C(=O)O[C@@H]1C` [Crocapeptin A1], the pIC50 (Chymotrypsin [1]) is listed as 7.00.
For `CC(C)C[C@@H]1NC(=O)[C@@H](NC(=O)[C@H](CCC(N)=O)NC(=O)C(C)C)[C@@H](C)OC(=O)[C@H](C(C)C)NC(=O)C(Cc2ccc(O)cc2)N(C)C(=O)[C@H](Cc2ccccc2)N2C(=O)[C@H](CC[C@H]2O)NC1=O` (stereo partly drawn) [Crocapeptin A2], the pIC50 (Chymotrypsin [1]) is listed as 7.00.
For `CCC(C)C(=O)N[C@@H](CCC(N)=O)C(=O)N[C@@H]1C(=O)N[C@@H](CC(C)C)C(=O)N[C@H]2CC[C@@H](O)N(C2=O)[C@@H](Cc2ccccc2)C(=O)N(C)[C@@H](Cc2ccc(O)cc2)C(=O)N[C@@H](C(C)C)C(=O)O[C@@H]1C` (stereo partly drawn) [Crocapeptin A3], the pIC50 (Chymotrypsin [1]) is listed as 7.00.
For `CCCCCC(=O)N[C@@H](CC(=O)O)C(=O)N[C@@H]1C(=O)N[C@@H](Cc2ccc(O)cc2)C(=O)N[C@H]2CC[C@@H](O)N(C2=O)[C@@H](CC(C)C)C(=O)N(C)[C@@H](Cc2ccccc2)C(=O)N[C@@H](C(C)C)C(=O)O[C@@H]1C` [Cyanopeptolin 963A], the pIC50 (Chymotrypsin [1]) is given as 6.05.
For `CCCCCC(=O)NC(CC(=O)O)C(=O)NC1C(=O)NC(Cc2ccc(O)cc2)C(=O)NC2CCC(O)N(C2=O)C(Cc2ccccc2)C(=O)N(C)C(CCc2ccc(O)cc2)C(=O)NC(C(C)C)C(=O)OC1C` (stereo not drawn) [Cyanopeptolin CP1027], the pIC50 (Chymotrypsin [1]) is given as 6.59.
In the case of `CC[C@@H](C)[C@H]1C(=O)N(C)[C@@H](Cc2ccc(OC)c(Br)c2)C(=O)N[C@@H]([C@@H](C)CC)C(=O)O[C@H](C)[C@H](NC(=O)[C@@H](NC(=O)[C@@H](COS(=O)(=O)O)OC)C(C)C)C(=O)N[C@@H](CCCCN)C(=O)N[C@H]2CC[C@@H](O)N1C2=O` [Jizanpeptin C] ({Propanoyl(2R-OMe,3-OSO3H)}-VTK[Ahp(3S,6R)alloIle][NMeTyr(3-Br,OMe)]I; ester 2-C), the pIC50 (Chymotrypsin [1]) is given as 5.85.
For `CC(C)C[C@@H]1NC(=O)[C@@H](NC(=O)[C@@H](NC(=O)[C@H](C)NC(=O)[C@H](CCCc2ccc(O)cc2)NC(=O)[C@H](O)CO)C(C)C)[C@@H](C)OC(=O)[C@H](C(C)C)NC(=O)[C@H](Cc2ccc(O)c(Br)c2)N(C)C(=O)[C@@H]2[C@H](C)O[C@@H]3CC[C@H](NC1=O)C(=O)N23` [Largamide D oxazolidine], the pIC50 (Chymotrypsin [1]) is given as 6.03.
With `CC=C1NC(=O)[C@@H](NC(=O)[C@@H](NC(=O)[C@@H]2CCCN2C(=O)CCC)[C@@H](C)OC(=O)C2CCCN2C(=O)CCC)[C@@H](C)OC(=O)[C@H](C(C)C)NC(=O)[C@H](Cc2ccc(O)cc2)N(C)C(=O)[C@H](Cc2ccccc2)N2C(=O)[C@H](CC[C@H]2O)NC1=O` (stereo partly drawn) [Rivulariapeptolide 1155, rivulariapeptolide 1155] the pIC50 (Proteinase K) was 7.25, the “Mean (RFU/s)” value (Proteinase K; [3]) was 6.603 RFU/s and the “Mean (RFU/s)” value (Proteinase K; [4]) was 6.245 RFU/s. The “Mean (RFU/s)” value (Proteinase K; [5]) was 6.403 RFU/s, the “Mean (RFU/s)” value (Proteinase K; [6]) was 6.159 RFU/s and the “Mean (RFU/s)” value (Proteinase K; [7]) was 6.088 RFU/s. For the same compound, the “Mean (RFU/s)” value (Proteinase K; [8]) was 5.497 RFU/s, the “Mean (RFU/s)” value (Proteinase K; [9]) was 4.358 RFU/s and the “Mean (RFU/s)” value (Proteinase K; [10]) was 1.504 RFU/s. For the same compound, the “Mean (RFU/s)” value (Proteinase K; [11]) was 0.363 RFU/s, the “Mean (RFU/s)” value (Proteinase K; [12]) was 0.09033 RFU/s and the “Mean (RFU/s)” value (Proteinase K; [13]) was 0.027 RFU/s. For the same compound, the pIC50 (Chymotrypsin [2]; [14]) was 7.38, the “Mean (RFU/s)” value (Chymotrypsin [2]; [15]) was 5.293 RFU/s and the “Mean (RFU/s)” value (Chymotrypsin [2]; [16]) was 5.198 RFU/s. The “Mean (RFU/s)” value (Chymotrypsin [2]; [17]) was 5.411 RFU/s, the “Mean (RFU/s)” value (Chymotrypsin [2]; [18]) was 5.774 RFU/s and the “Mean (RFU/s)” value (Chymotrypsin [2]; [19]) was 4.968 RFU/s. The “Mean (RFU/s)” value (Chymotrypsin [2]; [20]) was 4.399 RFU/s, the “Mean (RFU/s)” value (Chymotrypsin [2]; [21]) was 2.874 RFU/s and the “Mean (RFU/s)” value (Chymotrypsin [2]; [22]) was 1.339 RFU/s. The “Mean (RFU/s)” value (Chymotrypsin [2]; [23]) was 0.494 RFU/s, the “Mean (RFU/s)” value (Chymotrypsin [2]; [24]) was 0.1737 RFU/s and the “Mean (RFU/s)” value (Chymotrypsin [2]; [25]) was 0 RFU/s. The pIC50 (Chymotrypsin [2]; [26]) was 7.38, the pIC50 (Elastase) was 8.31 and the “Mean (RFU/s)” value (Elastase; [3]) was 0.9773 RFU/s. For the same compound, the “Mean (RFU/s)” value (Elastase; [4]) was 0.8963 RFU/s, the “Mean (RFU/s)” value (Elastase; [5]) was 0.839 RFU/s and the “Mean (RFU/s)” value (Elastase; [6]) was 0.7733 RFU/s. For the same compound, the “Mean (RFU/s)” value (Elastase; [7]) was 0.5503 RFU/s, the “Mean (RFU/s)” value (Elastase; [8]) was 0.1703 RFU/s and the “Mean (RFU/s)” value (Elastase; [9]) was 0.054 RFU/s. The “Mean (RFU/s)” value (Elastase; [10]) was 0 RFU/s, the “Mean (RFU/s)” value (Elastase; [11]) was 0 RFU/s and the “Mean (RFU/s)” value (Elastase; [12]) was 0 RFU/s. For the same compound, the “Mean (RFU/s)” value (Elastase; [13]) was 0 RFU/s.
With `CCCC(=O)N1CCCC1C(=O)NC(C(=O)NC1C(=O)NC(CC(C)C)C(=O)NC2CCC(O)N(C2=O)C(Cc2ccccc2)C(=O)N(C)C(Cc2ccc(O)cc2)C(=O)NC(C(C)C)C(=O)OC1C)C(C)OC(=O)C1CCCN1C(=O)CCC` (stereo not drawn) [Rivulariapeptolide 1185, rivulariapeptolide 1185] the pIC50 (Proteinase K) was 7.26, the “Mean (RFU/s)” value (Proteinase K; [3]) was 6.418 RFU/s and the “Mean (RFU/s)” value (Proteinase K; [4]) was 6.488 RFU/s. The “Mean (RFU/s)” value (Proteinase K; [5]) was 6.316 RFU/s, the “Mean (RFU/s)” value (Proteinase K; [6]) was 6.389 RFU/s and the “Mean (RFU/s)” value (Proteinase K; [7]) was 6.178 RFU/s. The “Mean (RFU/s)” value (Proteinase K; [8]) was 5.621 RFU/s, the “Mean (RFU/s)” value (Proteinase K; [9]) was 4.195 RFU/s and the “Mean (RFU/s)” value (Proteinase K; [10]) was 1.657 RFU/s. For the same compound, the “Mean (RFU/s)” value (Proteinase K; [11]) was 0.4863 RFU/s, the “Mean (RFU/s)” value (Proteinase K; [12]) was 0.13 RFU/s and the “Mean (RFU/s)” value (Proteinase K; [13]) was 0.04267 RFU/s. For the same compound, the pIC50 (Chymotrypsin [2]; [14]) was 7.88, the “Mean (RFU/s)” value (Chymotrypsin [2]; [15]) was 5.046 RFU/s and the “Mean (RFU/s)” value (Chymotrypsin [2]; [16]) was 5.119 RFU/s. The “Mean (RFU/s)” value (Chymotrypsin [2]; [17]) was 5.025 RFU/s, the “Mean (RFU/s)” value (Chymotrypsin [2]; [18]) was 5.024 RFU/s and the “Mean (RFU/s)” value (Chymotrypsin [2]; [19]) was 4.153 RFU/s. For the same compound, the “Mean (RFU/s)” value (Chymotrypsin [2]; [20]) was 2.685 RFU/s, the “Mean (RFU/s)” value (Chymotrypsin [2]; [21]) was 1.084 RFU/s and the “Mean (RFU/s)” value (Chymotrypsin [2]; [22]) was 0.416 RFU/s. The “Mean (RFU/s)” value (Chymotrypsin [2]; [23]) was 0.1823 RFU/s, the “Mean (RFU/s)” value (Chymotrypsin [2]; [24]) was 0 RFU/s and the “Mean (RFU/s)” value (Chymotrypsin [2]; [25]) was 0 RFU/s. The pIC50 (Chymotrypsin [2]; [26]) was 7.88, the “increase in potency towards chymotrypsin” value (Chymotrypsin [2]; [27]) was “more than threefold” and the pIC50 (Elastase) was 7.63. The “Mean (RFU/s)” value (Elastase; [3]) was 0.9257 RFU/s, the “Mean (RFU/s)” value (Elastase; [4]) was 0.9033 RFU/s and the “Mean (RFU/s)” value (Elastase; [5]) was 0.876 RFU/s. For the same compound, the “Mean (RFU/s)” value (Elastase; [6]) was 0.8487 RFU/s, the “Mean (RFU/s)” value (Elastase; [7]) was 0.7693 RFU/s and the “Mean (RFU/s)” value (Elastase; [8]) was 0.589 RFU/s. The “Mean (RFU/s)” value (Elastase; [9]) was 0.369 RFU/s, the “Mean (RFU/s)” value (Elastase; [10]) was 0.07933 RFU/s and the “Mean (RFU/s)” value (Elastase; [11]) was 0.02233 RFU/s. The “Mean (RFU/s)” value (Elastase; [12]) was 0 RFU/s, the “Mean (RFU/s)” value (Elastase; [13]) was 0 RFU/s and the “decrease in potency towards elastase” value (Elastase; [27]) was “fivefold”.
